Reference: patent US8673943B2, “Fluorinated derivatives of deferiprone” (Apotex Technologies Inc., priority 2007, dated 2014)

Columns and labels:
[1] = Chemical stability studies in aqueous media, monitored by HPLC; type: physicochemical; conditions: for stability in 50 mM phosphate buffer at pH 7.4 or aqueous 0.01 N NaOH: HPLC Method 1; for stability in aqueous 0.01 N HCl and de-ionized water at pH 5.6: freshly prepared solutions
Description: (2) de-ionized water at pH 5.6;
(3) 50 mM phosphate buffer at pH 7.4; and […]

[2] = In vivo pharmacokinetic (PK) and blood brain barrier (BBB) studies, cassette dosing; parameters: species or system male Sprague-Dawley rats; conditions: tail vein injection, rat; for AUC brain* / AUC: normalized to 2 mg/kg dose; for Kp at 5 min / Kp / AUC: male, Sprague-Dawley; for Kp at 5 min / Kp: brain/plasma, intravenous; for Kp at 5 min: read-out: Brain/Plasma ratio at 5 min; for Kp: read-out: AUC brain/AUC plasma; for AUC: iv, plasma
Description: In vivo pharmacokinetic (PK) and blood brain barrier (BBB) studies were conducted in male Sprague-Dawley rats using cassette dosing. The topic of cassette dosing has been reviewed by Manitpisitkul, P. and White, R. E. (August 2004), Drug Discovery, Vol 9. No. 15, pp. 652-658. The mode of administration was through tail vein injection.

[3] = prior-art / published chelators; 1×10^−5 M chelator and 1×10^−6 M Fe(III); cited from earlier work
[4] = pH 7.4; cited from earlier work
[5] = type: physicochemical
Excerpt: The term “log kBMC” refers to the logarithm of the chromatographic capacity factor (reference retention time) in BMC, a special type of HPLC (Escuder-Gilabert, L., et al., Journal of Chromatography B, 2004, 807, 193-201). This analytical technique was used to correlate the log kBMC of 31 reference drug substances with known experimentally determined log BB values. A linear regression mathematical equation log BB=a(log kBMC)+b was obtained from these reference drug substances wherein a and b are constants. The log kBMC of the compounds of the present invention was measured by BMC. The experimental log kBMC of the compounds of the present invention was fit into the log BB=a(log KBMC) b equation to obtain a calculated log BB value. The calculated log BB is an indicator of the BBB penetration property of the compounds of the present invention.
FIG. 1 provides a table illustrating the physical properties of selected compounds of formula (I) according to the present invention. […] The chromatographic capacity factor kBMC of 31 reference drug substances with known experimentally determined log BB values were recorded (FIGS. 2 and 3). […] We used the above equation to compute a calculated log BB value of the compounds of the present invention as an estimate of the BBB penetration properties of the compounds. Deferiprone is known to penetrate the BBB and has a calculated log BB value of −1.05. […]

AUC brain* [2] [ng·h/mL] | Kp at 5 min [2] | Kp [2] | AUC [2] [ng·h/mL] | Kα [2] [h⁻¹] | Kβ [2] [h⁻¹] | t1/2α [2] [h] | t1/2β [2] [h] | Structure (SMILES) | also measured
 |  |  |  |  |  |  |  | Cn1cc(O)c(=O)cc1CF [(D)] | stability in aqueous solution [1]: unstable
 |  |  |  |  |  |  |  | Cc1cc(=O)c(O)c(C(F)F)n1C [(iv), 2-difluoromethyl-3-hydroxy-1,6-dimethyl-1H-pyridin-4-one] | stability in 50 mM phosphate buffer at pH 7.4 or aqueous 0.01 N NaOH [1]: almost instantaneously hydrolysed to their corresponding aldehydes; stability in aqueous 0.01 N HCl and de-ionized water at pH 5.6 [1]: stable
 |  |  |  |  |  |  |  | Cn1ccc(=O)c(O)c1C(F)F [(v), 2-difluoromethyl-3-hydroxy-1-methyl-1H-pyridin-4-one] | stability in 50 mM phosphate buffer at pH 7.4 or aqueous 0.01 N NaOH [1]: almost instantaneously hydrolysed to their corresponding aldehydes; stability in aqueous 0.01 N HCl and de-ionized water at pH 5.6 [1]: stable; stability in pH 7.4 phosphate buffer and 0.01 M sodium hydroxide [1]: unstable
 |  |  |  |  |  |  |  | Cc1cc(=O)c(O)c(C(O)C(F)(F)F)n1C (stereo not drawn) [Apo6729, 3-hydroxy-1,6-dimethyl-2-(2,2,2-trifluoro-1-hydroxy-ethyl)-1H-pyridin-4-one] | time stable in 0.1N HCl, 50 mM phosphate buffer pH 7.4 and 0.1 N NaOH ([1]; 0.1N HCl, 50 mM phosphate buffer at pH 7.4, 0.1 N NaOH, room temperature): at least 21 hrs
2730 | 0.46 | 0.6 | 4520 | 0.68 | 0.133 | 1.02 | 5.21 | Cn1ccc(=O)c(O)c1CC(F)(F)F [Apo6825, 3-hydroxy-1-methyl-2-(2,2,2-trifluoro-ethyl)-1H-pyridin-4-one] | 
580 | 0.5 | 0.65 | 890 | 2.37 | 0.136 | 0.29 | 5.10 | Cc1c(O)c(=O)c(CC(F)(F)F)cn1C [Apo6855, 3-Hydroxy-1,2-dimethyl-5-(2,2,2-trifluoro-ethyl)-1H-pyridin-4-one] | 
 |  |  |  |  |  |  |  | CNC(=O)c1c(O)c(=O)cc(C)n1C [CP502] | pFe(III) / pFe^3+ [3]: 21
860 | 0.45 | 0.79 | 1080 | 1.36 | 0.215 | 0.51 | 3.22 | Cc1c(O)c(=O)ccn1C [Deferiprone, 3-hydroxy-1,2-dimethyl-1H-pyridin-4-one] | distribution coefficient [4]: 0.17; calculated log BB [5]: −1.05
 |  |  |  |  |  |  |  | Cc1cc(=O)c(O)c(CF)n1C [compound (C)] | stability in aqueous solution [1]: unstable
 |  |  |  |  |  |  |  | Cn1cc(O)c(=O)cc1CF [compound (vii), 2-fluoromethyl-5-hydroxy-1-methyl-1H-pyridin-4-one] | fraction of compound remaining ([1]; 50 mM phosphate buffer at pH 7.4, after 5 hrs): about half; time stable in MeOH ([1]; MeOH): at least 4 hrs; stability in aqueous 0.01 N NaOH ([1]; aqueous 0.01 N NaOH): decomposed rapidly; stability in pH 7.4 phosphate buffer and 0.01 M sodium hydroxide [1]: unstable
